System: secretion of TNF-α from LPS-stimulated human monocytes
Assay: LPS-induced TNF-alpha production in human THP-1 cell line
Type: cell-based
Conditions: Monocyte, read-out: EC50, inhibition of secretion of TNF-α from LPS-stimulated human monocytes
Protocol: THP-1 (human, monocytic) cell line was purchased from the American Type Culture Collection (ATCC, Cat. No.TIB 202). Cell line was passaged three times per week in RPMI 1640 (GIBCO), supplemented with 10% heat-inactivated fetal bovine serum (FBS; Omega Scientific, Tarzana, Calif.), 2 mM L-glutamine, 100 U/ml penicillin and 100 μg/ml streptomycin (Gibco/Invitrogen, Carlsbad, Calif.) in a humidified incubator with 95% air and 5% CO2 at 37° C.
For the assay THP-1 cells were harvested, counted and suspended at 1E6 cells/ml in culture medium. 200 μl of cell suspension was added to each well at 96 well plates to provide density of 2×10^5 cells per well. Serial dilutions of P38 compounds were prepared at final concentrations in culture medium from a 10 mM stock solution, and assayed in triplicate. Vehicle was prepared by adjusting culture medium to 0.1% v/v DMSO which corresponds to the concentration of DMSO in the wells with test compounds.
Cells were incubated in presence of the P38 inhibitor for 30 min. After that cells were stimulated with LPS (E. coli 026:B6, 1 μg/ml) for 4 hr at 37° C. in a 5% CO2-incubator. Reaction was stopped by placing samples on ice and centrifuging for 10 min at 1500×g at 4° C. Cell supernatants were harvested and concentration of TNF—was determined by ELISA (BD Pharmingen, San Diego, Calif., Cat. No. 555212), following the manufacturer's instruction. Absorbance read and analyzed at 450 nm on a spectrophotometric ELISA plate reader (Labsystems Multiskan MCC/340). Replicate readings were averaged and the results are expressed as a percent of OD signal from control.

SMILES	EC50 [nM]
CONC(=O)c1ccc(C)c(Nc2nc(NCC3CCCC(CN)C3)nc(N[C@H](C)C(C)(C)C)n2)c1 (stereo partly shown) [Compound 9]	33
CONC(=O)c1ccc(C)c(Nc2nc(NCC3CCCC(CN)C3)nc(NC3CCCCC3C)n2)c1 (stereo not shown) [Compound 10]	22
CONC(=O)c1ccc(C)c(Nc2nc(NCc3cccc(C)c3)nc(N[C@H](C)C(C)(C)C)n2)c1 [Compound 12]	122
CONC(=O)c1ccc(C)c(Nc2nc(NCC3CCCC(CN)C3)nc(NC3CCCCC3)n2)c1 (stereo not shown) [Compound 11]	11

Source: patent US8119798B2, “P38 kinase inhibitors” (GlaxoSmithKline LLC, priority 2006, dated 2012)
